Results taken from article PMC8064294 (Journal of medicinal chemistry, 2020).

Key:
[1] = biological target: T1, recombinant human ULK1 protein (1-649) (Homo sapiens, UniProt O75385); experiment: ULK1 ADP-Glo kinase assay; type: biochemical; settings: for ULK1 ADP-Glo potency compared with compound 3: in words
T1 sequence (O75385 1-649): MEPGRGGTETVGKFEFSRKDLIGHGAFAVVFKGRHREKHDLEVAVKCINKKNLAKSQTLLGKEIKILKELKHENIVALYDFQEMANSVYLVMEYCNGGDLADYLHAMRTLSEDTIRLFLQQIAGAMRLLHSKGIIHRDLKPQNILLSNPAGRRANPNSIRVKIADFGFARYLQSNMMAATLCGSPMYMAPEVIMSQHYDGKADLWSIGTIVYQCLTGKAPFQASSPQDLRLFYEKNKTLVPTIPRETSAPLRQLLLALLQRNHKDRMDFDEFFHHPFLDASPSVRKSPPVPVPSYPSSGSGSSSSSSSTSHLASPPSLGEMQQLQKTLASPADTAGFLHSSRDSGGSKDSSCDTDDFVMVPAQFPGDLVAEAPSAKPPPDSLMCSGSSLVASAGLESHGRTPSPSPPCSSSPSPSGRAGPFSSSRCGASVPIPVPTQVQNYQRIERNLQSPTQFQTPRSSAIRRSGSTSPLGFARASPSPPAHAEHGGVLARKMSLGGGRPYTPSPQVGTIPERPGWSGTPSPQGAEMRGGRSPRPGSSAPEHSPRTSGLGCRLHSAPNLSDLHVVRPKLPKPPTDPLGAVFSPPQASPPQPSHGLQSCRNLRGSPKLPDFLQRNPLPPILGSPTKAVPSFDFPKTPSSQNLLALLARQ

Kinetic solubility = type: physicochemical
[2] = test system: autophagic flux in MDA-MB-468 cells expressing mCherry-EGFP-LC3; experiment: mCherry-GFP-LC3 FACS autophagic flux assay; type: cell-based, human; settings: 48 h
[3] = biological target: T2, ULK1 (NanoLuc-ULK1 fusion) (Homo sapiens, UniProt O75385); experiment: ULK1 NanoBRET intracellular kinase target engagement assay in HEK293T cells; type: cell-based; settings: HEK293T live cells
T2 sequence (O75385 1-1050): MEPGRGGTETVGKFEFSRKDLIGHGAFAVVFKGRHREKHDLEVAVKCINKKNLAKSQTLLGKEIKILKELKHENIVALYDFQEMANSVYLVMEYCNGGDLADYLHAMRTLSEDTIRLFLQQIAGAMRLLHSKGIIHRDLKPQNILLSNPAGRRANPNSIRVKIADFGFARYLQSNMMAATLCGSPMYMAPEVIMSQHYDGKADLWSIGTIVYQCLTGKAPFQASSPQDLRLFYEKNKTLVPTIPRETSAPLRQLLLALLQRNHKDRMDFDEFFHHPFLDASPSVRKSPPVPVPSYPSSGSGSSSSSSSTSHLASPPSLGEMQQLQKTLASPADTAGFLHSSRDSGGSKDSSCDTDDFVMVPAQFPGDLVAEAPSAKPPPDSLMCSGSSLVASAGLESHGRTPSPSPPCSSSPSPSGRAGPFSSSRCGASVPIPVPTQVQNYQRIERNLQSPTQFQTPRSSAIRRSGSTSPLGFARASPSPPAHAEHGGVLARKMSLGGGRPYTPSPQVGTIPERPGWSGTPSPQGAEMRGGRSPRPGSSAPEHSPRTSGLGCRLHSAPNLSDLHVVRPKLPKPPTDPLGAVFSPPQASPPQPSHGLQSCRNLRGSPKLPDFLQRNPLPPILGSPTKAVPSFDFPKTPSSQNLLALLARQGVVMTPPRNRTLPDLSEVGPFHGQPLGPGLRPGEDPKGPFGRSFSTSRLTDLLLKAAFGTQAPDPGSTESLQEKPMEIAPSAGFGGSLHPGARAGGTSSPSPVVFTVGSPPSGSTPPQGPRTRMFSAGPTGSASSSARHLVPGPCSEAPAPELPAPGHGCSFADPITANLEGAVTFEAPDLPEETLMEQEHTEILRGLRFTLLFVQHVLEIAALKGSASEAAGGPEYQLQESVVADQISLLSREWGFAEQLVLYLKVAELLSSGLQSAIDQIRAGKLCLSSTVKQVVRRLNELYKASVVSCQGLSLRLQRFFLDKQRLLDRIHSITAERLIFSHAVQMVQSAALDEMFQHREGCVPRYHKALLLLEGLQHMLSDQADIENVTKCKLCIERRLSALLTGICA

[4] = test system: pATG13 (Ser318), ATG13 and ULK1 in liver lysates; experiment: PD study, in vivo target engagement in mouse liver; settings: mice, 10 mg/kg oral gavage, 2 h post dosing
[5] = test system: autophagosomes in MDA-MB-468 cells; experiment: TEM imaging of autophagosomes; type: cell-based, human; settings: EBSS starved cells, 10 μM
MDA-MB-468 cells = experiment: Combination dose-response matrix with PARP inhibitors, Combenefit Loewe model; type: cell-based, human; settings: combination with niraparib; synergy at 26 0.19–1.7 μM and niraparib 3.8–7.5 μM
[6] = PK study in mice, plasma concentration by LC-MS/MS; settings: single oral dose 30 mg/kg
[7] = mice, stated as noted previously, no data shown, cited from earlier work

## FC(F)(F)c1cnc(Nc2cnc3[nH]ccc3c2)nc1NC1CC1 [compound 11, N^4-Cyclopropyl-N^2-(1H-pyrrolo[2,3-b]pyridin-5-yl)-5-(trifluoromethyl)pyrimidine-2,4-diamine]
[1]
  ULK1 ADP-Glo potency compared with compound 3: approximately equipotent with 3
Kinetic solubility
  solubility in PBS (in words): limited solubility

## FC(F)(F)c1cnc(Nc2ccc3[nH]ccc3c2)nc1NC1CC1 [compound 8, N^4-Cyclopropyl-N^2-(1H-indol-5-yl)-5-(trifluoromethyl)-pyrimidine-2,4-diamine]
[1]
  ULK1 ADP-Glo potency compared with compound 3: approximately equipotent with 3

## O=C(c1cc(Cc2n[nH]c(=O)c3ccccc23)ccc1F)N1CCN(C(=O)C2CC2)CC1 [olaparib, reference compound]
[2]; 30 μM
  increase in autophagic flux compared with control cells: approximately 30%

## Nc1ccc(Nc2ncc(C(F)(F)F)c(NC3CC3)n2)cc1 [compound 23, N^2-(4-Aminophenyl)-N^4-cyclopropyl-5-(trifluoro-methyl)-pyrimidine-2,4-diamine]
[3]
  ULK1 NanoBRET IC50 (range in words): sub-micromolar range

## FC(F)(F)c1cnc(Nc2ccc3ncccc3c2)nc1NC1CC1 [compound 16, N^4-Cyclopropyl-N^2-(quinolin-6-yl)-5-(trifluoromethyl)-pyrimidine-2,4-diamine]
[3]
  ULK1 NanoBRET IC50 (range in words): sub-micromolar range

## FC(F)(F)c1cnc(Nc2ccc3nn[nH]c3c2)nc1NC1CC1 [compound 10, N^2-(1 H-Benzo[d][1,2,3]triazol-6-yl)-N^4-cyclopropyl-5-(trifluoromethyl)pyrimidine-2,4-diamine]
[1]
  fold more potent than compound 3 in ULK1 ADP-Glo: about 4 fold

## O=C1CCCc2cc(Nc3ncc(C(F)(F)F)c(NC4CC4)n3)ccc21 [compound 19, 6-((4-(Cyclopropylamino)-5-(trifluoromethyl)pyrimidin-2-yl)amino)-3,4-dihydronaphthalen-1(2H)-one]
Kinetic solubility
  solubility in PBS (in words): limited solubility

## COc1ccc(Nc2ncc(C(F)(F)F)c(NC3CC3)n2)cc1OC [compound 26, N^4-Cyclopropyl-N^2-(3,4-dimethoxyphenyl)-5-(trifluoromethyl)pyrimidine-2,4-diamine]
[3]
  ULK1 NanoBRET IC50 (range in words): sub-micromolar range
[4]
  effect on pATG13 (Ser318) in liver: robust inhibition of pATG13 (Ser318)
  effect on total ATG13 and ULK1 levels in liver: downregulation of total ATG13 and ULK1 levels
[2]; 10 μM with olaparib 30 μM
  effect on olaparib-induced increase in autophagic flux: significantly suppressed the olaparib-induced increase in autophagic flux to a level similar to that observed in untreated control cells
[5]
  number of autophagosomes by TEM: decreased the number of autophagosomes to a greater extent than SBI-0206965
MDA-MB-468 cells
  maximum synergy score (Loewe): 26
[6]
  Cmax relative to ULK1 NanoBRET IC50: about 3 fold

## CNC(=O)c1ccccc1Oc1nc(Nc2cc(OC)c(OC)c(OC)c2)ncc1Br [compound 1]
[7]; ip dosing
  systemic exposure: poor systemic exposure
[7]
  oral bioavailability: no measurable oral bioavailability

## FC(F)(F)c1cnc(Nc2ccc3ncoc3c2)nc1NC1CC1 [compound 15, N^2-(Benzo[d]oxazol-6-yl)-N^4-cyclopropyl-5-(trifluoromethyl)pyrimidine-2,4-diamine]
[1]
  ULK1 ADP-Glo potency compared with compound 3: approximately equipotent with 3
